Laboratory results from US20160081338A1, “PLANT GROWTH ACCELERATOR” (Nippon Soda Co., Ltd., priority 2012, published 2016).

Tests used:
[1] = system: cucumber (Variety:Sagamihanjiro-fushinari); experiment: Test on acceleration of growth of aboveground/underground part of cucumber and effect of growing vigourous seedlings; format: in vivo; settings: after 7 days, dilution 708, active ingredient 250 ppm
Method: Seedling-raising culture soil for gardening was placed in a 12 -cm-by-20 -cm plastic pot 10 cm in depth, and 5 seeds of cucumber (Variety:Sagamihanjiro-fushinari) were sown in the soil. Thereinto was uniformly irrigated 500 ml of each chemical solution prepared in Example 1 or Comparative Example 1. Water was used in place of each chemical solution in the non-treatment plots. Each plot has 3 replications. The above-ground and underground parts of the seedlings germinated and grown after 7 days were measured for length. The ratio (%) of the average value in each treatment plot to the average value in the non-treatment plot was calculated.

[2] = system: rice seeds (variety: Koshihikari); experiment: Test on acceleration of rice root growth and effect of growing vigourous seedlings; format: in vivo; settings: for Seminal Root Length: paper filter, 25° C.
Method: A paper filter was spread in a plastic cup and impregnated with 10 ml of each of the chemical solutions prepared in Example 1 or Comparative Example 1. In non-treatment, water was used in place of the chemical solutions. In treatment plots, 1 replication was provided for each concentration; in the non-treatment plots, 2 replications were provided. Ten rice seeds (variety: Koshihikari) were sown on each plot of the paper filter and cultivated in a growth chamber at 25° C., and the length of roots was measured after 5 and 7 days. The average of measured values excluding the maximum and minimum values was calculated. The ratio (%) of the average value in each treatment plot to the average value in the non-treatment plots was calculated.

[3] = After 5 Days, dilution 708, active ingredient 250 ppm
[4] = After 5 Days, dilution 2832, active ingredient 62.5 ppm
[5] = After 5 Days, dilution 11328, active ingredient 15.6 ppm
[6] = After 7 Days, dilution 2832, active ingredient 62.5 ppm
[7] = After 7 Days, dilution 11328, active ingredient 15.6 ppm

Compound: Cc1c(Br)c2ccc(F)cc2n1S(=O)(=O)c1ncn(S(=O)(=O)N(C)C)n1 [Amisulbrom, 3-(3-bromo-6-fluoro-2-methylindol-1-ylsulfonyl)-N,N-dimethyl-1H-1,2,4-triazole-1-sulfonamide]
- Above-ground Part Length To Non-treatment [1]: 108%
- Under-ground Part Length To Non-treatment [1]: 117%
- Above-ground Part Length ([1]; 500 ml irrigated into soil): 2.2 cm
- Under-ground Part Length ([1]; 500 ml irrigated into soil): 4.3 cm
- Seminal Root Length To Non-treatment [2, 3]: 120%
- Seminal Root Length [2, 3]: 2.46 cm
- Seminal Root Length To Non-treatment [2, 4]: 139%
- Seminal Root Length [2, 4]: 2.85 cm
- Seminal Root Length To Non-treatment [2, 5]: 129%
- Seminal Root Length [2, 5]: 2.65 cm
- Seminal Root Length ([2]; After 7 Days, dilution 708, active ingredient 250 ppm): 2.91 cm
- Seminal Root Length To Non-treatment [2, 6]: 176%
- Seminal Root Length [2, 6]: 4.04 cm
- Seminal Root Length To Non-treatment [2, 7]: 154%
- Seminal Root Length [2, 7]: 3.53 cm
- Seminal Root Length To Non-treatment ([2]; after 7 days, dilution 708, active ingredient 250 ppm): 127%
